Laboratory results taken from patent US9388170B2, “Substituted aminoquinazolines useful as kinases inhibitors” (TELIGENE LTD., priority 2012, dated 2016).
Values after ≈ are worked out from the molar mass of the structure shown. Where two headings read alike, the source gives them in different places.

How the values were obtained:
[1] = In vivo NCI-H1975 xenograft study body weight change; details: nude mice, 15 mg/kg
Method: (§1) A representative protocol for the in vivo experiment is as followed to establish the subcutaneous NCI-H1975 cell line xenograft model in nude mice and to evaluate the in vivo therapeutic efficacy of the compounds: H1975 cells were cultured in RPMI1640 containing 10% fetal bovine serum, 1% L-glutamine, 100 U/mL penicillinG and 100 μg/mL streptomycin. Cells in logarithmic growth phase were harvested and resuspended in 1×PBS for implantation. Tumor xenografts were established by injecting tumor cells 5×10^6/mouse into the right flank by sc under sterile conditions. When the tumors reached an appropriate size (100-200 mm^3), mice were randomized into 6 mice per group (8 mice in control group). The tumors were measured using a caliper in two dimensions, length (a), and width (b). Tumor volumes were estimated from measurements of two diameters of the individual tumors as follows: Tumor Volume(mm^3)=(a×b^2)/2 The tumor sizes and animal body weights were measured twice a week. Mice were observed daily for clinical signs. Blood samples were collected 2 hours after last treatment, plasma samples were prepared and stored at -80° C. Tumor tissues were separated, weighed, taken picture, and subsequently stored at -80° C. for further analysis. All animal experiments were performed in accordance with the Guidelines for Use and Care of Animals of the University of Traditional Medicine. The parameters for in vivo efficacy evaluation were calculated according to the guidance of SFDA. Percent T/C (%) was calculated with the following formula: T/C (%)=(TRTV/CRTV)×100%, where TRTV and CRTV stand for relative tumor volume in treatment group and vehicle control group, respectively. Relative tumor volume (RTV) was calculated using the formula: RTV=Vt/V0, where Vt represents volume on testing day, and V0 represents volume on first day of treatment.

[2] = In vivo NCI-H1975 study AST and ALT change; details: NCI-H1975 xenograft, nude mice, 15 mg/kg; in U/L (unit assumed)
Method: as §1

[3] = In vivo A431 xenograft body weight change; details: nude mice, 10 mg/kg
Method: (§2) A representative protocol for the in vivo experiment to establish the subcutaneous A431 cell line xenograft model in nude mice and to evaluate the in vivo therapeutic efficacy of the compounds is similar to the protocol described for subcutaneous NCI—H1975 cell line xenograft model in nude mice. […] Tumor growth inhibition (TGI, %) was calculated.

[4] = target: EGFR (T790M/L858R) (Homo sapiens (Human), UniProt P00533, L858R/T790M); assay: In vitro EGFR (T790M/L858R) kinase activity inhibition assay (Kinase-Glo Plus luminescence); type: biochemical; details: 10 μM ATP, read-out: potency (IC50), enzyme assay (EGFR/T790M)
Method: 2. […] It measures kinase activity by quantitating the amount of ATP remaining in solution following a kinase reaction. The luminescent signal from the assay is correlated with the amount of ATP present and is inversely correlated with the amount of kinase activity. […] Luminescence signal was measured using a BioTek Synergy 2 microplate reader.
3. […] The luminescence data were analyzed using the computer software, Graphpad Prism. […] The IC50 value was determined by the concentration causing a half-maximal percent activity.

[5] = test system: A431; assay: Cell proliferation assay (MTT), A431; type: cell-based; details: Homo sapiens, A-431, A431 cells, 72 hours
Method: (§3) A Representative Number of Compounds were Assayed Against Different Cancer Cell Lines Such as A431, BT474, NCI—H1975, SK—OV-3, SK—Br-3 and A549 Using the Cell Proliferation Assays:
(§4) 1. 5×10^3 cells per well in 100 μl of medium were seeded in 96-well plate, here the medium contained 5% FBS
(§5) 2. 24 hours later, 100 μl fresh medium was added with various concentrations of compounds into each well, while the medium here was free of FBS.
(§6) 3. After the cells were treated with compounds for 72 hours, 20 μl MTT (5 mg/ml) was added into each well, and then the assay plate was incubated at 37° C. for 4 more hours.
(§7) 4. The assay plate was centrifuged at 800 g for 10 min. The medium was aspirated, 150 μl DMSO was added into each well. The plate was gently shaken for 10 min.
(§8) 5. The absorbance at 570 nm was measured on the plate reader.

[6] = test system: BT474; assay: Cell proliferation assay (MTT), BT474; type: cell-based; details: Homo sapiens, BT-474, BT474 cells, 72 hours
Method: as §3, §4, §5, §6, §7, §8

[7] = test system: NCI—H1975; assay: Cell proliferation assay (MTT), NCI-H1975; type: cell-based; details: Homo sapiens, NCI—H1975 cells, 72 hours, read-out: potency (IC50), NCI—H1975 cell assay
Method: as §3, §4, §5, §6, §7, §8

[8] = test system: SK—OV-3; assay: Cell proliferation assay (MTT), SK-OV-3; type: cell-based; details: Homo sapiens, SK—OV-3 cells, 72 hours, read-out: potency (IC50), SK—OV-3 cell assay
Method: as §3, §4, §5, §6, §7, §8

[9] = test system: SK—Br-3; assay: Cell proliferation assay (MTT), SK-Br-3; type: cell-based; details: Homo sapiens, SK—Br-3 cells, 72 hours, read-out: potency (IC50), SK—Br-3 cell assay
Method: as §3, §4, §5, §6, §7, §8

[10] = test system: A549; assay: Cell proliferation assay (MTT), A549; type: cell-based; details: Homo sapiens, A549 cells, 72 hours, read-out: potency (IC50), A549 cell assay
Method: as §3, §4, §5, §6, §7, §8

[11] = test system: NCI—H1975 cell line xenograft; assay: In vivo subcutaneous NCI-H1975 xenograft efficacy; details: nude mice
Method: A representative protocol for the in vivo experiment is as followed to establish the subcutaneous NCI—H1975 cell line xenograft model in nude mice and to evaluate the in vivo therapeutic efficacy of the compounds: H1975 cells were cultured in RPMI1640 containing 10% fetal bovine serum, 1% L-glutamine, 100 U/mL penicillinG and 100 μg/mL streptomycin. Cells in logarithmic growth phase were harvested and resuspended in 1×PBS for implantation.
Tumor xenografts were established by injecting tumor cells 5×10^6/mouse into the right flank by sc under sterile conditions. When the tumors reached an appropriate size (100-200 mm^3), mice were randomized into 6 mice per group (8 mice in control group). The tumors were measured using a caliper in two dimensions, length (a), and width (b). […]
The tumor sizes and animal body weights were measured twice a week. […] The parameters for in vivo efficacy evaluation were calculated according to the guidance of SFDA. Percent T/C (%) was calculated with the following formula: T/C (%)=(TRTV/CRTV)×100%, where TRTV and CRTV stand for relative tumor volume in treatment group and vehicle control group, respectively. Relative tumor volume (RTV) was calculated using the formula: RTV=Vt/V0, where Vt represents volume on testing day, and V0 represents volume on first day of treatment. […]

[12] = Solubility measurement (HPLC); type: physicochemical; details: thermodynamic from solid
Method: The compound was diluted with acetonitrile to 100 mL.
The solution was shook for 2 minutes and left for 30 minutes at 25° C. After standing for 30 minutes, precipitate was formed in the bottom of the EP. The solutions was filtered through 0.2 um membrane filter, and then diluted by 50 times with water.
The standard and sample solutions were injected into the HPLC on a Shim-Pack CLC-ODS C18 column (150 mm×6.0 mm, 5 um) with the same volume. The mobile phase consisted of acetonitrile with 2% […] −20 mM KH2PO4 buffer (pH=6.8) at a flow rate of 1 mL/minutes (40:60). The detection wavelength is at 264 nm. Calculation: solubility of sample=the concentration of standard×Area of sample×50/Area of standard.

[13] = test system: A431 cell line xenograft; assay: In vivo subcutaneous A431 xenograft efficacy; details: nude mice, 10 mg/kg by oral gavage once daily for 14 days
Method: as §2

[14] = aqueous buffer, pH 6.8 buffer solution (20 mM), 25° C., read-out: Solubility at pH 6.8
[15] = buffer solution (pH 7.6), 25 °C, pH 7.6, aqueous buffer, read-out: Solubility at pH 7.6

Sequence of EGFR (T790M/L858R) (P00533 25-1210 T790M/L858R): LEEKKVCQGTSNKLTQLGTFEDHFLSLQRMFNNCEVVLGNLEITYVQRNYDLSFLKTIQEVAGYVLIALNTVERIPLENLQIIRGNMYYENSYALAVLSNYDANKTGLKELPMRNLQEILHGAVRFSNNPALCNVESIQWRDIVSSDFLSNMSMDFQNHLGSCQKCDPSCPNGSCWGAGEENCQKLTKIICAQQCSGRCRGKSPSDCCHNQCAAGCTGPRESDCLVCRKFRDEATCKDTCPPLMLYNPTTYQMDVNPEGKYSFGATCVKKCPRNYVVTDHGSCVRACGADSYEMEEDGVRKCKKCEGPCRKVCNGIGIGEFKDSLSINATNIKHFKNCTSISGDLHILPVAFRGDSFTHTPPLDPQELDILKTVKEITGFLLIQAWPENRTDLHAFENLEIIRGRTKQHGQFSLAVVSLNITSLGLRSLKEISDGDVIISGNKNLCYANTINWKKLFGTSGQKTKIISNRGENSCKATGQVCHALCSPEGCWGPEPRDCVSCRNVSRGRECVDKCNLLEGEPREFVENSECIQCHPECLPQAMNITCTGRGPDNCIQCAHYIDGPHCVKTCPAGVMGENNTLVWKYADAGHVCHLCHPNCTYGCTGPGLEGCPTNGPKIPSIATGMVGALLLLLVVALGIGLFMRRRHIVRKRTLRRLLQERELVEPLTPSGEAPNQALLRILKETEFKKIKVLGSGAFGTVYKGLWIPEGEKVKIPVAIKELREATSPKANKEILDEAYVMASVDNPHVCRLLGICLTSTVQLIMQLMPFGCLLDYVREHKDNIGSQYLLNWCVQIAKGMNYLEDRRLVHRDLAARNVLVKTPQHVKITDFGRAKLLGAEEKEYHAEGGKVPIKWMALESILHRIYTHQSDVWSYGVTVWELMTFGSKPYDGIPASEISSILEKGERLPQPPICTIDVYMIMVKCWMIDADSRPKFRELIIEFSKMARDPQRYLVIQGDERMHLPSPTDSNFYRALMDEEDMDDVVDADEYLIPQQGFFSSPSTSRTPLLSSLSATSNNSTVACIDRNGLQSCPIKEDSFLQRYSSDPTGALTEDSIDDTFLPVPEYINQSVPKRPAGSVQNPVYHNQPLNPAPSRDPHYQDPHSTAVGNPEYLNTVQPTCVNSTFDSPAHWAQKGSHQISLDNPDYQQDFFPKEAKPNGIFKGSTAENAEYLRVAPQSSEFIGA

IC50 [4] [µM] | IC50 [5] [µM] | IC50 [6] [µM] | IC50 [8] [µM] | IC50 [9] [µM] | IC50 [10] [µM] | solubility at 30 min [12, 14] [µg/mL] | solubility at 30 min [12, 15] [µg/mL] | Structure (SMILES) | Day 7 Weight change [1] [%] | ALT [2] | AST [2] | Body weight change, Day 7 [3] [%] | Body weight change, Day 10 [3] [%] | IC50 [7] [µM] | efficacy in the NCI—H1975 xenograft study [11] | Tumor growth inhibition (TGI, %) [13] [%]
– | – | – | – | – | – | – | – | CN(C)C/C=C/C(=O)Nc1cc2c(Nc3ccc(F)c(Cl)c3)ncnc2cc1O[C@H]1CCOC1 [Afatinib, reference compound] | −0.9 | 49.50 | 265.67 | −2.2 | 0.4 | – | – | –
< 0.1 | 3.1 | 0.057 | < 10 | < 10 | < 10 | 150 (≈ 328 µM) | 25 (≈ 54.6 µM) | C#Cc1cccc(Nc2ncnc3cc(O[C@H]4CCOC4)c(NC(=O)/C=C/CN(C)C)cc23)c1 [Compound 13, (S,E)-4-(dimethylamino)-N-(4-((3-ethynylphenyl)amino)-7-((tetrahydrofuran-3-yl)oxy)quinazolin-6-yl)but-2-enamide] | 0.1 | – | – | – | – | < 10 | good efficacy | –
– | – | – | < 10 | < 10 | < 10 | 3370 (≈ 6950 µM) | 238 (≈ 490 µM) | C#Cc1cccc(Nc2ncnc3cc(O[C@H]4CCOC4)c(NC(=O)/C=C/CN(CC)CC)cc23)c1 [Compound 20, (S,E)-4-(diethylamino)-N-(4-((3-ethynylphenyl)amino)-7-((tetrahydrofuran-3-yl)oxy)quinazolin-6-yl)but-2-enamide] | 3.5 | 41.67 | 142.33 | 1.5 | 4.3 | < 10 | – | 94
